Experimental data from the Kinase Knowledgebase extract (Sharma et al. 2016).

These compounds were tested against EGFR (UniProt P00533).
EGFR, sequence (P00533 whole entry, looked up): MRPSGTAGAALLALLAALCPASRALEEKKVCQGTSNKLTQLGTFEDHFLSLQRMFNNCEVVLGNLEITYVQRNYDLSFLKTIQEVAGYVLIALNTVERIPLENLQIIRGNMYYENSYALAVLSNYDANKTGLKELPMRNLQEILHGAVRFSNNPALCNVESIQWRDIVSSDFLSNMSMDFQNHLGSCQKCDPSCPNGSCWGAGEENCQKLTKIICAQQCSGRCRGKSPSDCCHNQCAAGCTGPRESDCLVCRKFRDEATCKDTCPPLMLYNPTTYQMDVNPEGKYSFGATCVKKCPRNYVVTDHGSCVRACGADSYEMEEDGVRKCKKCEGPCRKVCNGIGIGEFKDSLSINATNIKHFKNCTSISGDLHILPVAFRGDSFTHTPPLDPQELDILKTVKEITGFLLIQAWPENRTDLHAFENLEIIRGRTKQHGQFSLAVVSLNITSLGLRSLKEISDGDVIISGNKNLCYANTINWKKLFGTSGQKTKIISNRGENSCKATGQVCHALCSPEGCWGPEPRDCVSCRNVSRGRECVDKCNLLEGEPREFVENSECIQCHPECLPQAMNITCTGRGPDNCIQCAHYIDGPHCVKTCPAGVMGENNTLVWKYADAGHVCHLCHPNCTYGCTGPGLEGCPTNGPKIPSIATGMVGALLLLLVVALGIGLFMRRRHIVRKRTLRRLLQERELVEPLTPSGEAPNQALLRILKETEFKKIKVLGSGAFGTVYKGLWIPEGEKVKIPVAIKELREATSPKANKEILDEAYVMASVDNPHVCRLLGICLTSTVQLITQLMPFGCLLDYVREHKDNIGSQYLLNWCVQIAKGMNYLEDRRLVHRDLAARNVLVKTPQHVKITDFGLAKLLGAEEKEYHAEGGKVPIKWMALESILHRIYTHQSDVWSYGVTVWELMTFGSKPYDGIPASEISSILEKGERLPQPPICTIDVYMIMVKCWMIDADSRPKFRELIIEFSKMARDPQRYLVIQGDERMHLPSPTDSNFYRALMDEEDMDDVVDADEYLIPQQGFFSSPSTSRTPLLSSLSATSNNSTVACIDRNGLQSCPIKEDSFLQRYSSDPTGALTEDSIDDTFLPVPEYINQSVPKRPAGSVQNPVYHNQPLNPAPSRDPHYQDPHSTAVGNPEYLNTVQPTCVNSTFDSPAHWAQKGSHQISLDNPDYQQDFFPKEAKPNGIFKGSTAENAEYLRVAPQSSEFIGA

Structure (SMILES)	IC50 [µM]
N#Cc1cccc(NC(=O)Nc2ncnc3nn4ccccc4c23)c1	> 10
O=C(Nc1cccc([N+](=O)[O-])c1)Nc1ncnc2nn3ccccc3c12	> 10
Nc1ncnc2nn3ccccc3c12	> 10
c1ccc(Cc2nc3ccc(Nc4ncnc5nn6ccccc6c45)cc3[nH]2)cc1	1 to 10

Other lines, results leading:

IC50 [µM]	Structure (SMILES)
< 0.1	Clc1cc(Nc2ncnc3nn4ccccc4c23)ccc1OCc1ccccc1
> 10	O=C(Nc1ccc(C(F)(F)F)cc1)Nc1ncnc2nn3ccccc3c12
> 10	O=C(Nc1ccc(F)cc1)Nc1ncnc2nn3ccccc3c12
> 10	O=C(Nc1cccc(C(F)(F)F)c1)Nc1ncnc2nn3ccccc3c12
> 10	O=C(Nc1ccc(Br)cc1)Nc1ncnc2nn3ccccc3c12
1 to 10	c1ccc2c(CNNc3ncnc4nn5ccccc5c34)c[nH]c2c1
